Here are results for 2 compounds from patent US20250283110A1, “METHODS AND COMPOSITIONS FOR TRANSDUCTION OF NK CELLS” (ST. JUDE CHILDREN'S RESEARCH HOSPITAL, INC., priority 2021, published 2025).

The structures appear in SMILES notation. “Also recorded” adds a separate entry of the source.

Experiment [1] concerns NK cells. Briefly: cells. The format is cell-based. The conditions noted are these: Homo sapiens, 72 h; N=3; read-out: EC50 of YFP expression in NK cells.
The test system of experiment [2] is NK cells. The experiment in a line: NK cell immunophenotyping by flow cytometry with and without inhibitor. The format is cell-based, Human. The conditions noted are these: 2 μM for 24 hours, then 48 hours fresh media; N=3; paired two-tailed t-test treated vs untreated. On the procedure:
FIGS. 4A-4B show representative data relating to NK cell phenotype with and without treatment with a representative disclosed compound, MRT67307. Briefly, NK cells were treated with and without 2μMMRT67307 for 24 hours. Media was removed and replaced with fresh complete media and cells incubated for another 48 hours. Cells were immunophenotyped via flow cytometry. NK cells were identified as efluor455UV negative, CD3 negative, and CD56 positive.
250,000 NK cells were collected and washed twice in DPBS. Surface HER2-CAR detection was determined via immunolabeling with anti-F (ab′) 2-AF647 (109-606-006, Jackson Labs, Bar Harbor, ME, USA; 1:100), CD19-CAR was detected with PE conjugated recombinant human CD19 protein (3309HP, Creative Biomart, Shirley, NY, USA; 1:100), or YFP were utilized for detection on a BD FACS Lyric machine and analyzed with FlowJo v10 (BD). Immunophenotyping was performed on a BD Symphony flow cytometer. Antibodies used are delineated in below in Table 1.
(In general: In flow cytometry, cells or beads pass a laser one at a time.)

Another experiment concerns TBK1/IKKε. The conditions noted are these: Ref. 20; cited from earlier work.

Usually EC50 stands for the concentration needed to bring the measured effect to its halfway point. As for `O=C(NCCCNc1nc(Nc2cccc(NC(=O)N3CCCC3)c2)ncc1I)c1cccs1` [BX-795], in the experiment on NK cells [1], the EC50 amounted to 5 µM.
With `O=C(NCCCNc1nc(Nc2cccc(CN3CCOCC3)c2)ncc1C1CC1)C1CCC1` [MRT67307, N-[3-[[5-cyclopropyl-2-[3-(morpholin-4-ylmethyl)anilino]pyrimidin-4-yl]amino]propyl]cyclobutanecarboxamide], the EC50 in the experiment on NK cells [1] was 1.1 µM. Also, in the experiment on NK cells [2], the “effect on NK cell phenotype” value is reported as “no effect; also recorded: No parameter was significantly different”. The “specificity for TBK1/IKKε” value in the experiment on TBK1/IKKε is recorded as “more specific for TBK1/IKKε than BX-795”.
